Measurements published in ChEMBL document CHEMBL3137667, “[Drug-induced liver injury; fourteenth updated edition of the bibliographic database of liver injuries and related drugs]” (Gastroenterol Clin Biol, 2004).

What was measured:
[1] = human, serum, 4383 h
[2] = Highest frequency of acute liver toxicity observed during clinical trials, expressed as a percentage. [column '% AIGUE' in source]; conditions: human
[3] = human
[4] = human; remark: listed apart in the source
[5] = human; remark: listed apart in the source
[6] = human; remark: listed apart in the source
[7] = human; remark: listed apart in the source
[8] = human, serum
[9] = human; remark: listed apart in the source
[10] = human; remark: listed apart in the source
[11] = human, serum; remark: listed apart in the source
[12] = human; remark: listed apart in the source
[13] = Highest frequency of moderate liver toxicity observed during clinical trials, expressed as a percentage. [column '% BIOL' in source]; conditions: human
[14] = human; remark: listed apart in the source
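Wherever Hepatotoxicity (association with vascular disease) is given: count of indexed literature references reporting vascular liver injury in humans, e.g. peliosis hepatitis, hepatic veno-occlusive disease or Budd-Chiari syndrome.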
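Wherever Hepatotoxicity (benign tumour) is given: value is a count of indexed literature references citing a benign tumour confirmed by histopathology.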
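Wherever Hepatotoxicity (choleostasis) is given: human cholestatic liver injury, shown by histopathology or by peak ALT or AST elevation over alkaline phosphatase ratio below 2, value counts indexed literature reports.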
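Wherever Hepatotoxicity (chronic liver disease) is given: chronic liver injury confirmed by histopathology or persistently raised serum aminotransferase activity beyond 6 months, value given as the count of indexed literature references.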
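Wherever Hepatotoxicity (cirrhosis) is given: value is a count of indexed literature references reporting cirrhosis confirmed by histopathology.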
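Wherever Hepatotoxicity (cytolytic) is given: human cytolytic liver injury, shown by histopathology or by a ratio above 5 of peak ALT or AST elevation to alkaline phosphatase elevation, value counts indexed references.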
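Wherever Hepatotoxicity (granulomatous hepatitis) is given: value is a count of indexed literature references reporting granulomatous liver disease confirmed by histopathology.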
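Wherever Hepatotoxicity (malignant tumour) is given: malignant tumour confirmed by histopathology, value gives the count of indexed literature references reporting it.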
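Wherever Hepatotoxicity (severe hepatitis) is given: human clinical data: severe hepatitis, meaning potentially life-threatening liver failure or clinically observed cases, the value counts how many indexed literature references report it.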
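Wherever Hepatotoxicity (steatosis) is given: steatosis confirmed by histopathology, value is the count of indexed references.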

Structure (SMILES) | Hepatotoxicity (chronic liver disease) [1] | Hepatotoxicity (acute) [2] | Hepatotoxicity (steatosis) [3] | Hepatotoxicity (cirrhosis) [4] | Hepatotoxicity (cytolytic) [5] | Hepatotoxicity (granulomatous hepatitis) [6] | Hepatotoxicity (choleostasis) [7] | Hepatotoxicity (moderate) [8] | Hepatotoxicity (severe hepatitis) [9] | Hepatotoxicity (association with vascular disease) [10] | Hepatotoxicity (acute) [11] | Hepatotoxicity (malignant tumour) [12] | Hepatotoxicity (moderate) [13] | Hepatotoxicity (benign tumour) [14] | Hepatotoxicity (acute) ([2]; Liver) | Hepatotoxicity (severe hepatitis) ([9]; Liver) | Hepatotoxicity (moderate) ([13]; Liver)
CCOC(=O)C1=C[C@@H](OC(CC)CC)[C@H](NC(C)=O)[C@@H](N)C1 [OSELTAMIVIR] | 0 | 0% | 0 | 0 | 0 | 0 | 0 | 0 | 0 | 0 | 1 | 0 | 0% | 0 | – | – | –
CCOC(=O)[C@H](CCc1ccccc1)N[C@@H](C)C(=O)N(CC(=O)O)C1Cc2ccccc2C1 | 0 | 0% | 0 | 0 | 0 | 0 | 0 | 1 | 0 | 0 | 0 | 0 | 1.1% | 0 | – | – | –
CCC[C@@H]1C[C@@H](C(=O)N[C@@H]([C@H]2O[C@H](SC)[C@H](O)[C@@H](O)[C@H]2O)[C@@H](C)O)N(C)C1 [LINCOMYCIN] | 0 | 0% | 0 | 0 | 0 | 0 | 0 | 2 | 0 | 0 | 0 | 0 | 0% | 0 | – | – | –
CC(=O)N[C@@H]1[C@H](Oc2c3cc4cc2Oc2ccc(cc2Cl)[C@@H](O[C@@H]2O[C@@H](CO)[C@@H](O)[C@H](O)[C@@H]2NC(C)=O)[C@@H]2NC(=O)[C@H](NC(=O)[C@@H]4NC(=O)[C@H]4NC(=O)[C@@H](Cc5ccc(c(Cl)c5)O3)NC(=O)[C@H](N)c3ccc(O)c(c3)Oc3cc(O)cc4c3)c3ccc(O)c(c3)-c3c(O[C@H]4O[C@H](CO)[C@@H](O)[C@@H](O)[C@@H]4O)cc(O)cc3[C@@H](C(=O)O)NC2=O)O[C@@H](CO)[C@@H](O)[C@@H]1O | 0 | 0.9% | 0 | 0 | 1 | 0 | 1 | 36 | 0 | 0 | 4 | 0 | 26.9% | 0 | – | – | –
CCOC(=O)C1=C(C)NC(C)=C(C(=O)OC)C1c1cccc(Cl)c1Cl (centres undefined) [FELODIPINE] | 0 | – | 0 | 0 | 0 | 0 | 0 | 3 | – | 0 | 0 | 0 | – | 0 | 0% | 0 | 20%
C[C@]1(O)CC[C@H]2[C@@H]3CCC4=CC(=O)CC[C@@H]4[C@H]3CC[C@@]21C [NORMETHANDRONE] | 0 | 0% | 0 | 0 | 0 | 0 | 1 | 0 | 0 | 0 | 2 | 0 | 0% | 0 | – | – | –
O=C(CCCN1CCC(C(=O)c2ccc(F)cc2)CC1)c1ccc(F)cc1 [LENPERONE] | 0 | 0% | 0 | 0 | 0 | 0 | 0 | 2 | 0 | 0 | 0 | 0 | 0% | 0 | – | – | –
O=C(O)Cc1ccccc1Oc1ccc(Cl)cc1Cl [FENCLOFENAC] | 0 | 0% | 0 | 0 | 0 | 0 | 0 | 1 | 0 | 0 | 0 | 0 | 1% | 0 | – | – | –
CCOC(=O)C1=C(C)NC(C)=C(C(=O)OCC)C1c1ccccc1/C=C/C(=O)OC(C)(C)C [LACIDIPINE] | 0 | 0% | 0 | 0 | 0 | 0 | 0 | 1 | 0 | 0 | 0 | 0 | 0% | 0 | – | – | –
CC(C)(C)C(=O)OCOC(=O)[C@@H]1N2C(=O)[C@@H](NC(=O)[C@H](N)c3ccccc3)[C@H]2SC1(C)C [PIVAMPICILLIN] | 0 | 0% | 0 | 0 | 1 | 0 | 0 | 0 | 0 | 0 | 1 | 0 | 0% | 0 | – | – | –
CCCCCOC(=O)Nc1nc(=O)n([C@@H]2O[C@H](C)[C@@H](O)[C@H]2O)cc1F [CAPECITABINE] | 0 | 0% | 0 | 0 | 0 | 0 | 0 | 1 | 0 | 0 | 0 | 0 | 61.8% | 0 | – | – | –
